Laboratory results reported in article PMC8998904, “Identification and New Indication of Melanin-Concentrating Hormone Receptor 1 (MCHR1) Antagonist Derived from Machine Learning and Transcriptome-Based Drug Repositioning Approaches” (International Journal of Molecular Sciences, 2022).

How the values were obtained:
[1] = biological target: T1, human recombinant MCH-1 receptor (Homo sapiens, UniProt Q99705); test: Time-resolved fluorescence (TRF)-based MCHR1 receptor-binding assay with Eu-MCH; details: for inhibition at 10 µM: TRF MCHR1 binding, read-out: inhibition rate (%) at 10 μM; for IC50: TRF-based binding, 2 nM Eu-MCH
T1 construct: purchased Euroscreen S.A. (PerkinElmer)
T1 sequence (Q99705 whole entry): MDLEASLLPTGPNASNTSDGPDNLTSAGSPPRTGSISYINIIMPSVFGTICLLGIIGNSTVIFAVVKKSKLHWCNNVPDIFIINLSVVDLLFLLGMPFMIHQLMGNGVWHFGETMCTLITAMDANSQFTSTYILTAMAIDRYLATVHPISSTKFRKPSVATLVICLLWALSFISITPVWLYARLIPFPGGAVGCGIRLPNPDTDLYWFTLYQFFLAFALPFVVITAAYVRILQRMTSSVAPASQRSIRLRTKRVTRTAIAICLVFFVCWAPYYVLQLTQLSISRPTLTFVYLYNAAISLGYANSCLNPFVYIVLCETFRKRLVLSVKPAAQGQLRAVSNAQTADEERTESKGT
Description: (§1) An in vitro time-resolved fluorescence (TRF)-based binding assay for MCHR1 was performed to identify the MCHR1 antagonist from the 19 predicted compounds selected through in silico screening. […] In addition, a patch clamp assay was performed to measure the cardiotoxicity of the five compounds. […] Consequently, of the five compounds, only KRX-104130 and KRX-104165 overcame cardiotoxicity.
The receptor-binding affinities of the generated 19 compounds were determined by time-resolved fluorescence (TRF)-based receptor-binding assays using europium-labeled MCH (Eu-MCH) in 96-well AcroWell™ plates. The MCH labeled with europium at the N-1 position was supplied by the Wallac Labeling Service (PerkinElmer, Inc., Waltham, MA, USA). The human recombinant MCH-1 receptor membrane preparation (MCH-1/SLC1 membrane) was obtained from Euroscreen S.A. (PerkinElmer). The binding assay buffer contained 25 mM 4-(2-hydroxyethyl)-1-piperazineethanesulfonic acid (HEPES; pH 7.4), 5 mM MgCl2, 1 mM CaCl2, and 0.5% bovine serum albumin. Total binding was determined from the binding reaction in the presence of 2 nM Eu-MCH and 5 μg/unit MCH-1 receptor membrane for 90 min. Nonspecific Eu–MCH binding was defined in the presence of 0.5 µM unlabeled MCH. After incubation for 90 min, the plate was washed three times with 300 µL of ice-cold 25 mM HEPES buffer (pH 7.4) in an automatic vacuum filtration system. The Eu was dissociated from the bound ligand by the addition of 150 µL of DELFIA enhancement solution (Perkin Elmer) and incubated for 10 min with shaking. Fluorescence signals from dissociated Eu were measured using a multilabel reader (Envision, PerkinElmer) with an excitation wavelength (340 nm) and an emission wavelength (615 nm).

hERG channel = biological target: T2, hERG channel (Homo sapiens, UniProt Q12809); test: Patch clamp assay on HEK293-hERG cells; format: cell-based
T2 construct: host or cells: HEK293
T2 sequence (Q12809 whole entry): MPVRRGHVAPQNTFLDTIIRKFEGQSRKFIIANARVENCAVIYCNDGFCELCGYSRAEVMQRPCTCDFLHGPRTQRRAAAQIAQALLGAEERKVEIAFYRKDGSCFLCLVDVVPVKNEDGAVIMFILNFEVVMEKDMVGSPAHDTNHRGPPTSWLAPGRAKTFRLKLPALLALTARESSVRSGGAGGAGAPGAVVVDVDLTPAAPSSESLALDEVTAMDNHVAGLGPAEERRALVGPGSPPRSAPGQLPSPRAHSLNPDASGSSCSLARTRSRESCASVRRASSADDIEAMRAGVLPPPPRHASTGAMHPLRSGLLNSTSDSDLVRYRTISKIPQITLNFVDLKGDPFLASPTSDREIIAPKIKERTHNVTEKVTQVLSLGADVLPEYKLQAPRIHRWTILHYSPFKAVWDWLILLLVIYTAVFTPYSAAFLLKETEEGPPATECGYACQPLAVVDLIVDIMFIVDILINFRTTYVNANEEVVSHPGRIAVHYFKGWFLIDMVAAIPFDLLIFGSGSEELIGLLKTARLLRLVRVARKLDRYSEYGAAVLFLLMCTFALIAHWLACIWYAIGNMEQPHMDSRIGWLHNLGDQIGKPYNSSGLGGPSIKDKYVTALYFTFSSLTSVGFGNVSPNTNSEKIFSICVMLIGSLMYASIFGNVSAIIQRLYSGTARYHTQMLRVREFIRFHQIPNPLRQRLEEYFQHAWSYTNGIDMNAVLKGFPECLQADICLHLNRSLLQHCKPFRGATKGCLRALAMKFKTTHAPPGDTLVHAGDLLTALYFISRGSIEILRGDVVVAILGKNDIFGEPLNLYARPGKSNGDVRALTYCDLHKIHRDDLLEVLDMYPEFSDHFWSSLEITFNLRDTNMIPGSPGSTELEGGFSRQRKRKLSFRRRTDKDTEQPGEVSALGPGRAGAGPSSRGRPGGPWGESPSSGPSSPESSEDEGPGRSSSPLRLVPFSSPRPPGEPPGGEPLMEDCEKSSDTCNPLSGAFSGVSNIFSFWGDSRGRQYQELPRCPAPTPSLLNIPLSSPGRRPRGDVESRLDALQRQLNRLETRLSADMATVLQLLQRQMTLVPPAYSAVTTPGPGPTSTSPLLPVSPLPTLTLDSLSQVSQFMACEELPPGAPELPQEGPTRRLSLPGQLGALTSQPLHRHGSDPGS
Description: as §1
Patch clamp assays were performed on HEK293 cells stably expressing the hERG channel (HEK293-hERG cells; Genionics, Switzerland). When the cells were more than 80% confluent, they were freshly dislodged from flasks with 0.05% trypsin–EDTA for 1–2 min, spun down twice at 700× g, suspended into the extracellular solution (in mmol/L at 1.8 × 10^6 per mL: 137 NaCl, 4 KCl, 1 MgCl2, 1.8 CaCl2, 10 HEPES, and 10 glucose, pH 7.4, adjusted with NaOH), and dispensed into a patch clamp plate. The cell density was adjusted to 2–3 × 10^5 cells/mL. After dispensing, the cells were applied to the AutoPatch system (PatchXpress 7000A, Molecular Devices, Sunnyvale, CA, USA). The hERG currents were evoked by two voltage pulses at 3 s interval. The voltage pulse consisted of a 100-ms step to −30 mV, a conditioning prepulse (2 s duration, +25 mV or +45 mV), followed by a test pulse (2 s duration, −30 mV) from a holding potential of −70 mV. After a 3 s interval at −70 mV, a second pulse protocol was applied, consisting of a 100-ms step to −30 mV, a prepulse (2 s duration, +45 mV), followed by a test pulse (2 s duration, −30 mV). Leak currents were linearly subtracted, extrapolating the current elicited by a 100-ms step to −80 mV from a holding potential of −70 mV. The experiment was initiated with a buffer control in the absence of the drug to calculate the IC50. The test compound was applied at low to high concentrations, and the tail current was monitored continuously. The compound effects were tested using six concentrations in three-fold dilutions from 1 to 300 µM.

[2] = system: A375, A549, MCF7 and PC3 cells; test: mRNA gene expression (transcriptome, DEG) analysis in four cell lines; format: cell-based, human; details: 10 μM, 6 h; common gene of four cell lines
Description: Transcriptome analysis was performed to identify new indications of KRX-104130. For each of the four cell lines, human skin malignant melanoma cells (A375), human lung carcinoma cells (A549), human breast carcinoma cells (MCF7), and human prostate adenocarcinoma cells (PC3), 10 μM of KRX-104130 was administered for 6 h in the control and treatment groups. As an independent experiment was performed three times, considering the error, the average value was used for comparison. The change in gene expression levels was calculated by dividing the […]. Fold change (FC) was expressed as a positive or negative value when the gene expression value of the treatment group was greater or lower than that of the control group, respectively.
Four cell lines were used for the cell culture: A375, A549, MCF7, and PC3, purchased from the American Type Culture Collection (ATCC, Rockville, MD, USA). The A375 and A549 cells were cultured in RPMI-1640 medium supplemented with 10% fetal bovine serum (FBS) and 1% penicillin-streptomycin-glutamine. The MCF7 cells were cultured in Dulbecco’s modified Eagle’s medium (DMEM) with 10% FBS and 1% penicillin-streptomycin-glutamine. The PC3 cells were cultured in RPMI with 10% FBS, 1% penicillin-streptomycin-glutamine, 1 mM sodium pyruvate, and 10 mM HEPES. KRX-104130 was synthesized at the Research Center for Medicinal Chemistry, Korea Research Institute of Chemical Technology (KRICT, Daejeon, Korea).
After releasing the stock, the cells were used in the experiments and cultured for two weeks to stabilize. KRX-104130 was dissolved in dimethylsulfoxide (DMSO) to form a 10 mM stock solution and stored in a deep freezer (−80 °C). Six sheets were seeded in each of the four cell lines, three sheets of DMSO and KRX-104130 (DMSO × 3 and KRX-104130 × 3), and they were stored in an incubator for 24 h. Cells were plated at 1.1375 × 10^6 cells for A375, 1.3 × 10^6 cells for A549, 8.45 × 10^5 cells for MCF7, and 1.496 × 10^6 cells for PC3 under the culture conditions. After 24 h, DMSO and KRX-104130 were diluted 1000-fold in the medium, and the cells were treated with a final concentration of 0.1% DMSO and 10 μM KRX-104130. After 6 h, the medium was removed, and the cells were collected by treatment with 1 mL of TRIzol. After destroying the cells by pipetting, they were stored in a deep freezer (−80 °C).
The total RNA samples were assessed using the Clariom™ S Assay Human Platform. cDNA was synthesized using the GeneChip WT (Whole Transcript) Amplification Kit as described by the manufacturer. The sense cDNA was then fragmented and biotin-labeled with terminal deoxynucleotidyl transferase (TdT) using the GeneChip WT Terminal labeling kit. Approximately 5.5 μg of labeled DNA target was hybridized to the Affymetrix GeneChip Array at 45 °C for 16 h. The hybridized arrays were washed and stained on a GeneChip Fluidics Station 450 and scanned using a GCS3000 scanner. Probe cell intensity data computation and CEL file generation were performed using Affymetrix® GeneChip Command Console® Software version 6.0+ (AGCC, www.thermofisher.com/kr/ko/home/life-science/microarray-analysis/microarray-analysis-instruments-software-services/microarray-analysis-software/affymetrix-genechip-command-console-software.html, accessed on 1 September 2021). The CEL file is a binary format that contains the intensity calculated result for the pixel values of the DAT file and is used to extract normalized intensity to be used for actual analysis in Affymetrix® Power Tools version 2.11.4 (APT, www.thermofisher.com/kr/en/home/life-science/microarray-analysis/microarray-analysis-partners-programs/affymetrix-developers-network/affymetrix-power-tools.html, accessed on 1 September 2021). […]

LDLR [3] = test: RT-qPCR analysis of LDLR mRNA expression in HepG2 cells; format: cell-based, human; details: HepG2 cells, 3, 10 and 30 μM, 24 h
Description: (§2) To validate that KRX-104130 increased the LDLR gene expression through the DEG analysis, LDLR mRNA expression was investigated in KRX-104130–treated HepG2 cells.
The mRNA expression levels of LDLR in the HepG2 cells were determined by real-time quantitative PCR (RT-qPCR) at the Cosmo Genetech (Sungsoo, Seoul, Korea). The total RNA was extracted from the cultured cells using an RNeasy mini kit (Qiagen, Valencia, CA, USA), and gene expression was analyzed by RT-qPCR using a Bio-Rad CFX96 system (Hercules, CA, USA). The mRNA expression levels were investigated three times in each sample treated with 0 μM, 3 μM, 10 μM, and 30 μM KRX-104130 for 24 h, and each result was obtained from three independent experiments, for 12 samples. For LDLR, the forward primer was 5′-CTCCCGCCAAGATCAAGAAA-3′, and the reverse primer was 5′-GAGATCTAGGGTGATGCCATTG-3′. The housekeeping gene, glyceraldehyde 3-phosphate dehydrogenase (GAPDH), was used as an internal control. The forward primer was 5′-TTGCCATCAATGACCCCTTCA-3′, and the reverse primer was 5′-CGC CCC ACT TGA TTT TGG A-3′. The PCR conditions for all genes were 40 cycles of pre-denaturation at 95 °C for 3 min, amplification at 62 °C for 30 s, and 95 °C for 10 s. The qPCR was performed using CFX manager (Version 3.1).

LDLR [4] = test: Western blot assay of LDLR protein expression in HepG2 cells; format: cell-based, human; details: HepG2 cells, 3, 10 and 30 μM
Description: as §2
The protein expression levels of LDLR in the HepG2 cells were determined by Western blot assay at Cosmo Genetech (Sungsoo, Seoul, Korea). Briefly, cell protein extracts were prepared using radioimmunoprecipitation assay buffer (Thermo Scientific, Pierce, Rockford, IL, USA). Twenty micrograms of protein lysate were separated by electrophoresis on a 10% sodium dodecyl-sulfate (SDS)-polyacrylamide gel electrophoresis (PAGE) gel (Bio-Rad, Hercules, CA, USA) and transferred to a nitrocellulose membrane (Hybond-C Extra; GE Healthcare, Piscataway, NJ, USA). Nonspecific binding was blocked with 5% milk and incubated with 1:1000 primary antibody (LDLR Rabbit-mAb, #ab52818, Abcam) overnight at 4 °C. The secondary antibodies (horseradish peroxidase [HRP]-conjugated mouse anti-rabbit IgG, #SC-2357, Santa Cruz) were diluted 1:3000 in a fresh blocking solution. Protein bands were detected using the SuperSignal West Femto Kit (Thermo Fisher Scientific Inc., Waltham, MA, USA).

[5] = system: methionine-choline-deficient (MCD) diet induced NASH mouse model; test: MCD diet-induced NASH mouse model; format: in vivo, C57BL/6 mice; details: 30 mg/kg once-daily oral, 4 weeks
Description: In addition, the MCD diet-induced histopathological changes, such as steatosis and fibrosis in liver tissues, were ameliorated by treatment with KRX-104130 (Figure 8D).
Animal studies were carried out following the guidelines for animal care approved by the Institutional Animal Care and Use Committee at the Korea Research Institute of Chemical Technology (approval number: 2020-6A-10-01). Nine-week-old male C57BL/6 mice (Orient Bio, Sungnam, Korea) were randomly divided into three groups: a control group that was fed MCS diet, the NASH model group, and the treatment group that was fed an MCD diet with once-daily oral administration of vehicle (0.5% carboxymethyl cellulose) or 30 mg/kg KRX-104130. After 4 weeks of feeding, the mice were fasted overnight, and blood and tissue samples were obtained for biochemical and histological analyses. Liver TG levels and serum concentrations of liver injury markers, including ALT and AST, were determined using a colorimetric kit (MAK266, Sigma-Aldrich, St. Louis, MO, USA) or biochemical analyzer (AU480, Beckman Coulter, Atlanta, GA, USA), respectively, according to the manufacturer’s instructions. The left lobe of the liver was fixed in 10% neutralized buffered formalin and embedded in paraffin. Histological examination was performed using hematoxylin and eosin (H&E) and picrosirius red staining of 5 µm-thick sections.

[6] = Plasma pharmacokinetic profile in mice (I.V. and P.O.); details: for Tolerability / death after administration to mice: pharmacokinetic study; for AUC(0-t): AUC0–t, n=3; for Tolerability / death after administration to mice / AUC(0-t): mice

CCN(CC)CCN(C)c1cnc2cc(NC(=O)c3ccc(-c4ccc(Cl)cc4)cc3)ccc2n1 [KRX-104137]
inhibition at 10 µM [1]: 96%
IC50 [1]: 10 nM
IC50 (hERG channel): 420 nM

COc1nc2cc(F)c(F)cc2nc1NC(=O)NC1CCN(Cc2ccc3[nH]ncc3c2)CC1 [KRX-104161]
inhibition at 10 µM [1]: 94.8%
IC50 [1]: 10 nM
IC50 (hERG channel): 180 nM

COc1nc2cc(F)c(F)cc2nc1NC(=O)NC1CCN(Cc2cc3ccccc3[nH]2)CC1 [KRX-104130]
inhibition at 10 µM [1]: 97.1%
IC50 [1]: 20 nM
IC50 (hERG channel): 13000 nM
Fold change (FC) CCNE2 [2]: −1.96
Fold change (FC) DNAJB9 [2]: 3.50
Fold change (FC) HERPUD1 [2]: 3.17
Fold change (FC) HSD17B7 [2]: 2.22
Fold change (FC) INSIG1 [2]: 2.85
Fold change (FC) LDLR [2]: 2.79
Fold change (FC) MSMO1 [2]: 3.09
Fold change (FC) TIPARP [2]: 3.98
LDLR mRNA expression level (LDLR [3]): LDLR upregulation in a concentration-dependent manner
LDLR protein level (LDLR [4]): increased in a concentration-dependent manner
MCD diet-induced histopathological changes (steatosis and fibrosis in liver tissues) ([5]; H&E and picrosirius red): ameliorated
Liver TG levels ([5]; mean ± S.E.M.): 29.73 ± 1.54
Serum ALT ([5]; mean ± S.E.M.): 163.67 ± 25.85
Serum AST ([5]; mean ± S.E.M.): 170.5 ± 27.27
Tolerability / death after administration to mice [6]: without specific abnormalities
Vd ([6]; mouse, plasma, iv, 10 mg/kg): 14.2 ± 0.72 L/kg
clearance ([6]; mouse, plasma, iv, 10 mg/kg): 36.8 mL/min/kg
half-life ([6]; mouse, plasma, iv, 10 mg/kg): 5.71 ± 1.03 h
AUC(0-t) ([6]; mouse, plasma, iv, 10 mg/kg, I.V.): 4550 ± 220 ng·h/mL
bioavailability ([6]; mouse, plasma, oral, 20 mg/kg): 20.3%
Cmax ([6]; mouse, plasma, po, 20 mg/kg): 130 ± 50 ng/mL
Tmax ([6]; mouse, plasma, po, 20 mg/kg): 6.67 ± 2.31 h
half-life ([6]; mouse, plasma, po, 20 mg/kg): 10.2 h
AUC(0-t) ([6]; mouse, plasma, po, 20 mg/kg, P.O.): 1720 ± 850 ng·h/mL

COc1nc2cc(F)c(F)cc2nc1NC(=O)NC1CCN(Cc2ccc3[nH]ccc3c2)CC1 [KRX-104156]
inhibition at 10 µM [1]: 100%
IC50 [1]: 50 nM
IC50 (hERG channel): 920 nM

COc1nc2cc(F)c(F)cc2nc1NC(=O)NC1CCN(Cc2cn(C(C)=O)c3ccccc23)CC1 [KRX-104165]
inhibition at 10 µM [1]: 94.3%
IC50 [1]: 60 nM
IC50 (hERG channel): > 50000 nM
Tolerability / death after administration to mice [6]: the mouse died immediately after administration
